From ChEMBL document CHEMBL5223080, “Discovery of Pyrrole-imidazole Polyamides as PD-L1 Expression Inhibitors and Their Anticancer Activity via Immune and Nonimmune Pathways” (J Med Chem, 2021) come the findings set out here.

Active and inactive are the calls of the source. The rule behind the calls is not given here.

The test system of data set [1] is HCC827. In words: Cytotoxicity against human HCC827 cells incubated for 36 hrs by standard CCK-8 assay. Format: functional, cell-based. The conditions noted are these: for IC50: HCC827, 36 h. For orientation: Tetrazolium dyes change colour on reduction, which living cells bring about.
In data set [2] the test system is MDA-MB-231. Briefly: Cytotoxicity against human MDA-MB-231 cells incubated for 36 hrs by standard CCK-8 assay. Conditions: for IC50: MDA-MB-231, 36 h. Format: functional, cell-based.
Data set [3] can be described thus: Induction of T-cell mediated cytotoxicity against human MDA-MB-231 cells co-cultured with Jurkat cells assessed as apoptotic cells at 8 uM incubated for 36 hrs by standard CCK-8 assay relative to control. Format: functional.
A short description of data set [4]: Induction of T-cell mediated cytotoxicity against human HCC827 cells co-cultured with Jurkat cells assessed as apoptotic cells at 8 uM incubated for 36 hrs by standard CCK-8 assay relative to control. It counts as functional.
Data set [5] can be described thus: Binding affinity to DNA STAT3 binding site of PD-L1 promoter region (unknown origin) assessed as disappearance of band of wild-type double stranded DNA-STAT3 protein complex at > 8 uM by competitive electrophoretic mobility shift assay.
In data set [6] the test system is MDA-MB-231. In words: Induction of apoptosis in human MDA-MB-231 cells co-cultured with human Jurkat T cells at 8 uM relative to control. Format: functional.
In data set [7] the test system is DNA. In words: Binding affinity to wild type 28 nucleotide double stranded DNA (unknown origin) in PD-L1 gene promotor region at 1:1 compound to DNA ratio incubated for 24 hrs by Circular Dichroism assay. Format: nucleic-acid assay. In general terms: Circular dichroism is widely used to follow secondary structure.
The subject of data set [8] is HCC827. Briefly: Induction of apoptosis in human HCC827 cells assessed as inhibition of Akt phosphorylation at 10 uM by Western blot analysis. Format: functional, cell-based.
Another data set has as its system Jurkat. In words: Cytotoxicity against human Jurkat cells at 8 uM incubated for 36 hrs by standard CCK-8 assay. It counts as toxicity, cell-based.
The test system of data set [9] is HCC827. In words: Inhibition of PD-L1 protein expression in IFNgamma-induced human HCC827 cells measured for 36 hrs by Western blot analysis. It counts as functional, cell-based. The conditions noted are these: dose 1.25-10 µM. For orientation: In western blotting, separated proteins are transferred to a membrane and probed.
Another data set is filed under the species Homo sapiens. Briefly: Binding affinity to 5'-biotin-double stranded DNA (unknown origin) assessed as saturation of the compound-DNA complex at 350 to 500 nM by surface plasmon resonance. The conditions noted are these: dose 350-500 nM.
For data set [10], the system named is MDA-MB-231. In words: Inhibition of PD-L1 protein expression in IFNgamma-induced human MDA-MB-231 cells measured for 36 hrs by Western blot analysis. It counts as functional, cell-based. Conditions: dose 1.25-10 µM.
Data set [11] in a line: Induction of T-cell mediated cell killing in human MDA-MB-231 cells co-cultured with PMA-activated Jurkat T cells assessed as IL-2 production at 8 uM by ELISA relative to control. Format: functional.
Data set [12] concerns MDA-MB-231. In words: Inhibition of PD-L1 mRNA expression in IFNgamma-induced human MDA-MB-231 cells measured for 36 hrs by qRT-PCR analysis. It counts as functional, cell-based. Conditions: dose 1.25-10 µM.
Data set [13] deals with HCC827. Briefly: Induction of apoptosis in human HCC827 cells co-cultured with human Jurkat T cells at 8 uM relative to control. Format: functional.
Data set [14] concerns HCC827. In words: Induction of apoptosis in human HCC827 cells assessed as inhibition of pro-caspase 3 at 10 uM by Western blot analysis. Format: functional, cell-based.
Data set [15] has as its system DNA. In words: Binding affinity to wild type double stranded DNA (unknown origin) at 1:1 compound to DNA ratio incubated for 24 hrs at 340 nm by Circular Dichroism assay. It counts as nucleic-acid assay.
Data set [16] is described as follows: Binding affinity to human single stranded DNA (unknown origin) by electrophoretic mobility shift assay.
In data set [17] the test system is MDA-MB-231. In words: Antimigratory activity in human MDA-MB-231 cells assessed as inhibition rate at 0.5 to 1 uM measured after 48 hrs by Wound healing assay relative to control. Format: functional. Also noted: scale not given: the % may be the effect or the level left. Conditions: dose 0.5-1 µM.
Data set [18] has as its system HCC827. In words: Antitumour activity against human HCC827 cells assessed as measuring interleukin-2 levels by ELISA. It counts as functional.
The test system of data set [19] is dsDNA. In words: Binding affinity to human 5'-biotin-double stranded DNA assessed as association rate constant by surface plasmon resonance. Format: nucleic-acid assay.
Data set [20] deals with dsDNA. Briefly: Binding affinity to human 5'-biotin-double stranded DNA assessed as dissociation rate constant by surface plasmon resonance. It counts as nucleic-acid assay.
Data set [21] concerns dsDNA. Briefly: Binding affinity to human wild-type double stranded DNA assessed as thermal stability of compound-DNA complex by measuring change in melting temperature at stoichiometry ratio 1:1 by UV melting assay. Format: nucleic-acid assay.
Data set [22] deals with dsDNA. In words: Binding affinity to human mutant double stranded DNA assessed as thermal stability of compound-DNA complex by measuring melting change in temperature at stoichiometry ratio 1:4 by UV melting assay. It counts as nucleic-acid assay.
Data set [23] can be described thus: Induction of T-cell mediated cell killing in human HCC827 cells co-cultured with PMA-activated Jurkat T cells assessed as IL-2 production at 8 uM by ELISA relative to control. Format: functional.
The test system of data set [24] is DNA. Briefly: Binding affinity to wild-type double stranded DNA (unknown origin) by assessed as decrease in compound-DNA complex at >=8 uM by competitive electrophoretic mobility shift assay. It counts as nucleic-acid assay.
For data set [25], the system named is HCC827. Briefly: Antimigratory activity in human HCC827 cells assessed as inhibition rate at 0.5 to 1 uM measured after 48 hrs by Wound healing assay relative to control. Also noted: scale not given: the % may be the effect or the level left. Conditions: dose 0.5-1 µM. Format: functional.
Data set [26] relates to MDA-MB-231. In words: Antimigratory activity in human MDA-MB-231 cells assessed as inhibition rate at 2 uM measured after 48 hrs by Wound healing assay relative to control. More on the design: scale not given: the % may be the effect or the level left. It counts as functional.
Data set [27] concerns dsDNA. Briefly: Binding affinity to human mutant double stranded DNA assessed as thermal stability of compound-DNA complex by measuring melting temperature change in at stoichiometry ratio 1:0.5 by UV melting assay. It counts as nucleic-acid assay.
Data set [28] concerns MDA-MB-231. Briefly: Antitumour activity against human MDA-MB-231 cells assessed as measuring interleukin-2 levels by ELISA. It counts as functional.
Data set [29] deals with dsDNA. Briefly: Binding affinity to human 5'-biotin-double stranded DNA assessed as dissociation equilibrium constant by surface plasmon resonance. Format: nucleic-acid assay.
For the next data set, the system named is MRC5. In words: Cytotoxicity against human MRC5 cells at 32 uM by standard CCK-8 assay. Format: toxicity, cell-based. Conditions: mrc5, 32 µM.
Data set [30] deals with dsDNA. In words: Binding affinity to human wild-type double stranded DNA assessed as thermal stability of compound-DNA complex by measuring change in melting temperature at stoichiometry ratio 1:0.5 by UV melting assay. It counts as nucleic-acid assay.
Data set [31] has as its system MDA-MB-231. In words: Induction of apoptosis in human MDA-MB-231 cells assessed as inhibition of pro-caspase 3 at 10 uM by Western blot analysis. Format: functional, cell-based.
Data set [32] has as its system dsDNA. In words: Binding affinity to human mutant double stranded DNA assessed as thermal stability of compound-DNA complex by measuring change in melting temperature at stoichiometry ratio 1:1 by UV melting assay. It counts as nucleic-acid assay.
The subject of data set [33] is DNA. In words: Binding affinity to wild type double stranded DNA (unknown origin) incubated for 24 hrs by Circular Dichroism assay. It counts as nucleic-acid assay.
Data set [34] concerns HCC827. Briefly: Inhibition of PD-L1 mRNA expression in IFNgamma-induced human HCC827 cells measured for 36 hrs by qRT-PCR analysis. The conditions noted are these: dose 1.25-10 µM. It counts as functional, cell-based.
The subject of data set [35] is dsDNA. In words: Binding affinity to human wild-type double stranded DNA assessed as thermal stability of compound-DNA complex by measuring change in melting temperature at stoichiometry ratio 1:4 by UV melting assay. Format: nucleic-acid assay.
In data set [36] the test system is MDA-MB-231. Briefly: Induction of apoptosis in human MDA-MB-231 cells assessed as inhibition of Akt phosphorylation at 10 uM by Western blot analysis. Format: functional, cell-based.
In data set [37] the test system is HCC827. In words: Antimigratory activity in human HCC827 cells assessed as inhibition rate at 2 uM measured after 48 hrs by Wound healing assay relative to control. It counts as functional. Also noted: scale not given: the % may be the effect or the level left.

Take `COc1nc(OCc2cccc(-c3ccccc3)c2C)ccc1CNCCNC(C)=O`: the half-maximal inhibitory concentration (IC50) with HCC827 [1] was found to be 8.41 µM; in the data set on MDA-MB-231 [2], 7.92 µM. In addition, the Activity in [3] is recorded as 87.58%; in data set [4], 70.87%.
Turning to `CC(=O)Nc1cc(C(=O)Nc2cc(C(=O)Nc3cc(C(=O)Nc4cn(C)c(C(=O)Nc5cn(C)c(C(=O)NCCC(=O)Nc6cn(C)c(C(=O)NCCCC(=O)Nc7cc(C(=O)Nc8cc(C(=O)Nc9cc(C(=O)NCCC(=O)Nc%10cc(C(=O)Nc%11cn(C)c(C(=O)Nc%12cc(C(=O)NCCC(=O)NCCCN(C)C)n(C)c%12)n%11)n(C)c%10)n(C)c9)n(C)c8)n(C)c7)n6)n5)n4)n(C)c3)n(C)c2)n(C)c1.Cl`, the result (in [5]; in the data set with DNA [7]; with HCC827 [8]; in the data set listed under Homo sapiens; in the data set on DNA [15]; with DNA [24]) was Active. Moreover, the outcome in the data set on DNA [33] and in the data set on MDA-MB-231 [36] was Active. Also, the Activity was 30.84% with MDA-MB-231 [6]; “Non-Toxic” with Jurkat; 60.35% in data set [11]; “Dose-Dependent Effect” with HCC827 [1] (dose 2-32 µM); 269.14% with HCC827 [13]; “Dose-Dependent Effect” with MDA-MB-231 [2] (dose 2-32 µM). The Activity in the data set with MDA-MB-231 [17] is 50%; with HCC827 [18], 51.17 pg/mL; in data set [23], 57%; in the data set with HCC827 [25], 50%; in the data set with MDA-MB-231 [26] it was 86.33%; in the data set with MDA-MB-231 [28] it was 87.89 pg/mL. Besides, the Activity entry in the data set with MRC5 was “Non-Toxic”; in data set [3], 82.11%; in [4], 70%; with HCC827 [37] it was greater than 70%. Also, the inhibition result in the data set on HCC827 [9], in the data set on MDA-MB-231 [10], with MDA-MB-231 [12] and with HCC827 [34] was “Dose-Dependent Effect” throughout. In addition, the half-maximal inhibitory concentration (IC50) in the data set with HCC827 [1] worked out at 11.8 µM; in the data set with MDA-MB-231 [2], 9.05 µM. Also, the inhibition result in the data set with HCC827 [14] and in the data set on MDA-MB-231 [31] was “Active” in each case. Moreover, in data set [16], the result was inactive. The Ka with dsDNA [19] was 6.47 10^6/M/s. Moreover, the results for the Kd on dsDNA [20] and on dsDNA [29] were 32.3 10^-2/s and 0.0499 µM, respectively. For the same compound, the ΔTm in the data set on dsDNA [21] was 7 °C; with dsDNA [22], 0.4 °C; in the data set with dsDNA [27], 0.1 °C; with dsDNA [30], 2.9 °C; in the data set with dsDNA [32] it was 0.2 °C; in the data set with dsDNA [35], 7.3 °C.

One may read the IC50 as the midpoint of a concentration-inhibition curve. The term Kd denotes the constant that tells how readily two partners part at equilibrium. In general, ΔTm refers to the shift of the melting midpoint relative to a reference.
